# According to article PMC6982022 (International Journal of Molecular Sciences, 2019):
# Where “and” joins values, the source holds several entries; their conditions need not be identical. Identical values can stand only once. Entries after “also recorded” stand apart in the source; their conditions may differ.
# Columns and labels:
# C57BL6J mice [1] = experiment: Epididymal sperm acrosome morphology (FITC-PSA staining) after 35 days oral dosing; assay type: in vivo, mouse; conditions: for Sperm morphology Abnormal, average (%) / Sperm morphology Normal, average (%): six mice/group
# Description: (§1) Groups of six mice, each, were used for three different doses of NB-DNJ or NB-DGJ formulated in milliQ water at 50 mg/kg, 25 mg/kg and 15 mg/kg, respectively. Control groups were given an equivalent volume of water. Animals were given compound or control once daily for 35 consecutive days via oral gavage using animal feeding needles (Biomedical Needles, Popper, NY, USA). Body weight was noted every week for all treatment groups. Mice were euthanized at the end of a 35 days dosing regimen using CO2 asphyxia followed by cervical dislocation. Testes were harvested, weighed and stored in Bouin’s fixative for 48 h, then sliced into two halves, and stored in fresh Bouin’s for another 24 h. The tissue slices were then rinsed in 70% ethanol and processed and stained for histology using a standard protocol for Hematoxylin and eosin staining. Spermatids with elongated and abnormally shaped heads were counted per 20 fields and average number calculated for 6 mice/group.
# For sperm retrieval, epididymis was removed from the animal and placed in Petri dish. One mL of capacitation buffer (Capacitation buffer consisted of 110 mM NaCl, 2.68 mM KCl, 0.36 mM NaH2PO4, 25 mM NaHCO3, 0.49 mM MgCl2, 2.40 mM CaCl2, 25 mM HEPES, 5.50 mM Glucose, 1 mM Pyruvic acid, pH 7.4; Tash and Bracho, 1998) at room temperature was added to the dish. Using forceps, the caput of the epididymis was held in place and the cauda sliced repeatedly with a razor blade. The spermatozoa were allowed to disperse for 15 min with gentle swirling intermittently. A 100 µL aliquot of the sperm suspension was dropped onto a standard glass microscope slide (Fisherbrand superfrost microscope slides 25 × 75 × 1.0 mm)) and smeared with side of pipette tip. The slides were air dried flat for 1 h at room temperature. The sperm smear was fixed in methanol for 2 min. The sperm smear was than stained using FITC-PSA (Fluorescein isothiocyanate Pisum Sativum Agglutinin; Vector Laboratories, Burlingame, CA) was diluted 1:7000 in PBS containing 1:10,000 DAPI dihydrochloride, FluoroPure™ grade, Invitrogen) (≥98% pure) to make the stock solution. To each slide, 100 µL of FITC-PSA was added and spread out with edge of pipette tip to cover the dried sperm smear. The slides were incubated at 37 °C for 10 min, and then washed with 5 changes of PBS for 5 min each. The slides were air-dried and mounted with 20 µL Vectashield mounting medium for fluorescence (Vector Laboratories, Burlingame, CA, USA) and observed. Slides were viewed on a Nikon IX-81 microscope under a 40× objective using FITC and DAPI filter to visualize acrosome morphology. The phase contrast images were also collected at the same magnification to compare morphological details.
# C57BL6J mice [2] = experiment: Testis histology (H&E) after 35 days oral dosing; assay type: in vivo, mouse; conditions: 15, 25 or 50 mg/kg, oral daily
# Description: as §1
# male CD rats = experiment: Rat mating trial (fertility); assay type: in vivo; conditions: for Conceptus, mean abnormal / Fertile/Mated / Conceptus, mean normal: 150 mg/kg/day oral days 0-34
# Description: Eighteen adult male CD rats were divided into three groups of six rats each. One group of six CD rats was treated with vehicle (distilled water containing 0.9% benzyl alcohol) via oral gavage (5 mL/kg/day), and the second group (6 rats) was treated with NB-DGJ (in distilled water containing 0.9% benzyl alcohol) via oral gavage at 150 mg/kg/day (in approximately 5 mL/kg of water) daily for 35 consecutive days. The third group (6 rats) was treated with 15 mg/kg NB-DNJ in distilled water containing 0.9% benzyl alcohol) via oral gavage (in approximately 5 mL/kg of water) daily for 35 consecutive days (Figure S5).
# (§2) Rats were weighed on day 0 (first day of dosing) and weekly thereafter. Dosages were adjusted based on the most recent body weight. Males were cohabited with untreated females (one male per two females) weekly at weeks 1 through 9 [38, 39]. Females were necropsied seven days after separation from males to determine the numbers of implantation sites. Individual male rats were bled from the tail vein at weeks 0, 1, 4, and 7 and serum was harvested by centrifugation. At week 11, the male rats were weighed, anesthetized, and exsanguinated. Sera were analyzed for inhibin B by ELISA (enzyme-linked immunosorbent assay), and rat follicle stimulating hormone (rFSH) and testosterone by radioimmunoassay. Testes, epididymides, ventral prostates, and seminal vesicles were excised and weighed. The left testis was homogenized, and spermatid head counts obtained.
# (§3) Statistical analysis using the Student’s t-test was performed on body weights, paired testes weights, ventral prostrate weights, seminal vesicle weights, paired epididymal weights, spermatid head counts, percent motile and normal epididymal sperm. We used analysis of variance (ANOVA) for serum inhibin B, rFSH, and testosterone, since these measurements were repeated throughout the study period. The effect of NB-DNJ at 15 mg/kg/day dose in the rat model was studied following the same protocol as that for NB-DGJ.
# adult male CD rats = experiment: Parameters measured at necropsy at end of fertility trial (week 11); assay type: in vivo, rat
# From the text: as §2
# Sperm were obtained from the left cauda epididymis and evaluated for sperm motility, as follows. The cauda epididymis was punctured with an 18-gauge needle and sperm expressed into the well of a culture slide. The sperm were diluted with capacitation buffer containing 0.1% BSA to obtain about 20–40 sperm per field as viewed in the inverted microscope. The number of motile and non-motile sperm was determined, and the percent of motile sperm were calculated. A smear of the diluted sperm was also prepared and used to assess sperm morphology under phase contrast. The percent of normal/abnormal sperm were calculated.
# as §3
# C57BL/6 mice = conditions: cited from earlier work
# [3] = 150 mg/kg/day on days 0-34, week 11, n = 6
compound,measurement,setting,value
"CCCCN1C[C@H](O)[C@@H](O)[C@@H](O)[C@H]1CO [NB-DGJ, N-butyldeoxygalactonojirimycin]","Sperm morphology Abnormal, average (%)",C57BL6J mice [1]; 15 mg/kg oral daily,51.59%
same,"Sperm morphology Normal, average (%)",C57BL6J mice [1]; 15 mg/kg oral daily,48.4%
same,"Sperm morphology Abnormal, average (%)",C57BL6J mice [1]; 25 mg/kg oral daily,62.05%
same,"Sperm morphology Normal, average (%)",C57BL6J mice [1]; 25 mg/kg oral daily,37.85%
same,"Sperm morphology Abnormal, average (%)",C57BL6J mice [1]; 50 mg/kg oral daily,88.21%
same,"Sperm morphology Normal, average (%)",C57BL6J mice [1]; 50 mg/kg oral daily,11.78%
same,Sperm acrosome morphology (in words),"C57BL6J mice [1]; 15, 25 and 50 mg/kg oral daily",dose-dependent increase in the number of abnormal spermatozoa
same,"Testis histology, spermatid heads (in words)",C57BL6J mice [2],"rounded, abnormally shaped spermatid heads"
same,Treatment time after which fertility was blocked,male CD rats; 150 mg/kg/day oral,35 days
same,"Conceptus, mean abnormal",male CD rats; week of study 1,0.3
same,Fertile/Mated,male CD rats; week of study 1,6/6
same,"Conceptus, mean normal","male CD rats; week of study 1, both females per male",14
same,"Conceptus, mean abnormal",male CD rats; week of study 2,0.1
same,"Conceptus, mean normal",male CD rats; week of study 2,6
same,Fertile/Mated,male CD rats; week of study 2,6/6
same,"Conceptus, mean abnormal",male CD rats; week of study 3,0
same,"Conceptus, mean normal",male CD rats; week of study 3,1
same,Fertile/Mated,male CD rats; week of study 3,3/6
same,"Conceptus, mean abnormal",male CD rats; week of study 4,0/0
same,"Conceptus, mean normal",male CD rats; week of study 4,0/0
same,Fertile/Mated,male CD rats; week of study 4,0/6
same,"Conceptus, mean abnormal",male CD rats; week of study 5,2
same,Fertile/Mated,male CD rats; week of study 5,6/6
same,"Conceptus, mean normal",male CD rats; week of study 5 (after termination of dosing),10
same,"Conceptus, mean abnormal",male CD rats; week of study 6,0.3
same,"Conceptus, mean normal",male CD rats; week of study 6,13
same,Fertile/Mated,male CD rats; week of study 6,6/6
same,"Conceptus, mean abnormal",male CD rats; week of study 7,0.3
same,"Conceptus, mean normal",male CD rats; week of study 7,13
same,Fertile/Mated,male CD rats; week of study 7,6/6
same,"Conceptus, mean abnormal",male CD rats; week of study 8,0.3
same,"Conceptus, mean normal",male CD rats; week of study 8,14
same,Fertile/Mated,male CD rats; week of study 8,6/6
same,"Conceptus, mean abnormal",male CD rats; week of study 9,0.5
same,"Conceptus, mean normal",male CD rats; week of study 9,13
same,Fertile/Mated,male CD rats; week of study 9,6/6
same,Return of fertility after termination of dosing,male CD rats; 150 mg/kg/day oral for 35 days,within one week
same,Reduction of numbers of normal conceptuses,"male CD rats; 150 mg/kg/day oral, second week",50%
same,Treated rats infertile,"male CD rats; 150 mg/kg/day oral, week four",100%
same,Treated rats rendered infertile,"male CD rats; 150 mg/kg/day oral, week three",50%
same,Effect on fertility (in words),"male CD rats; 150 mg/kg/day, daily single oral dose, 35 days",induced reversible infertility; also recorded: caused reversible infertility
same,Adverse effects in treated animals,"male CD rats; daily dose of 150 mg/kg, 35 days",lack of adverse effects
same,Final Body Weight Week 11 (g ± SE),"adult male CD rats; 150 mg/kg/day on days 0-34, n = 6",572 ± 17 g
same,Ventral prostate weight versus vehicle,"adult male CD rats; 150 mg/kg/day on days 0-34, week 11, Student's t-test",No significant difference
same,Mean Epididymal Sperm Motility (%),adult male CD rats; [3],60% and 60 ± 3 %
same,Mean Epididymal Sperm with Normal Morphology (% ± SE),adult male CD rats; [3],72 ± 1 %
same,Mean Paired Epididymal Weight (g ± SE),adult male CD rats; [3],1.64 ± 0.03 g
same,Mean Paired Testis Weight (g ± SE),adult male CD rats; [3],3.80 ± 0.11 g
same,Mean Seminal Vesicle Weight with Coagulating Gland,adult male CD rats; [3],1.40 ± 0.11 g
same,Mean Spermatid Head Count/Testis,adult male CD rats; [3],123.59 ± 3.73 Cells × 10^6
same,Effect on fertility (in words),"C57BL/6 mice; C57BL/6J male mice, 150 mg/kg",reversible infertility
same,Time for fertility to resume,C57BL/6 mice; C57BL/6J mice,approximately three weeks
same,"Testicular histology, spermiogenesis (in words)",C57BL/6 mice; dose equivalent to 1200 mg/kg of NB-DNJ,disrupts spermiogenesis
